Common to all, as to type: biochemical
In one test the target is recombinant human MMP-10 (Homo sapiens, UniProt P09238). In words: MMP selectivity assay, MMP-10. The settings on record: Table 2 selectivity profile. As to the method: (§1) The inhibitory effect of compounds on the rate of cleaving fluorogenic MMP substrate (Enzo, BML-P128) by recombinant human MMP-12 catalytic domain (Enzo, BML-SE138) was carried out by methods known in the art. Briefly, to each well of a 96-well black opaque plate, all the reagents were sequentially added by pipetting, and the final reaction contained 4 nM of recombinant human MMP-12 catalytic domain, 4 μM of fluorogenic MMP substrate, and various concentrations (0.15 nM to 10,000 nM) of tested compound dilutions in HEPES buffer (pH 7.5) containing 10 mM of CaCl2), 0.01% Brij® 35 (polyoxyethylene (23) lauryl ether), and 0.1 mg/ml of BSA.
(§2) The enzyme and compounds were pre-incubated on a shaker to mix in wells. After an hour of mixing, fluorogenic substrate was added to each well. Reaction without enzyme was used as a blank control in the plate. The plate was then fed into a plate reader to measure fluorescence intensity at Excitation/Emission wavelengths of 340 nm/440 nm every 10 mins for at least 1 hour at 37° C. The IC50 of each compound in MMP-12 inhibition was determined by using a readout obtained at time point 30 minutes.
(§3) The MMP selectivity assay was performed by using other recombinant human MMPs, including MMP-1, MMP-2, MMP-3, MMP-7, MMP-8, MMP-9, MMP-10, MMP-13, and MMP-14. The IC50 of the compounds for the other recombinant human MMPs was determined as described above in Example 1, and are shown in Table 2.

The target in test [1] is T1, recombinant human MMP-12 catalytic domain (Homo sapiens, UniProt P39900).
T1 construct: recombinant human MMP-12 catalytic domain; purchased Enzo BML-SE138
Briefly: MMP-12 inhibitory assay (fluorogenic substrate cleavage). The settings on record: readout at 30 minutes, 37° C., Table 1. As to the method:
as §1, §2

For a further test, the target named is recombinant human MMP-13 (Homo sapiens, UniProt P45452). Briefly: MMP selectivity assay, MMP-13. As to conditions: Table 2 selectivity profile. The procedure: as §1, §2, §3

Chain of recombinant human MMP-10 (P09238 99-476): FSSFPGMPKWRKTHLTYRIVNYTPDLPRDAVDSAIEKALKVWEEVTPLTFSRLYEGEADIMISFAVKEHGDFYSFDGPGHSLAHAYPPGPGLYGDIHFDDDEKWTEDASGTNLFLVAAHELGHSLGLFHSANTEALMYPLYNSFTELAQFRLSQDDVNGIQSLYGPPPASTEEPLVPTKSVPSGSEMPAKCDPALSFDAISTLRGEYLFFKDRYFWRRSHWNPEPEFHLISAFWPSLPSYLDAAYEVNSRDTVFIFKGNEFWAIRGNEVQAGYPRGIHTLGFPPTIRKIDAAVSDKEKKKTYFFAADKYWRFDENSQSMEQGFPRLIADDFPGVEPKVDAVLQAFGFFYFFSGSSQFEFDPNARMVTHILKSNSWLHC
T1 sequence (P39900 106-268 limits assumed): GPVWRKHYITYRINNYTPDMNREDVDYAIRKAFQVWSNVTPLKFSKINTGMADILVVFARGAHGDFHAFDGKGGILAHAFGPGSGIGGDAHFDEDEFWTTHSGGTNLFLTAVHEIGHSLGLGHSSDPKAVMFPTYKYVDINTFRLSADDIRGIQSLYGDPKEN

In general, IC50 refers to the concentration at which inhibition is half-maximal. Turning to `Cc1cc(COc2ccc(Sc3ccncc3C3NC(=O)NC3=O)cc2)ccn1` (stereo not drawn) [PC-16], the results for the IC50 (at recombinant human MMP-10; in test [1]; on recombinant human MMP-13) were 1000 to 10000 nM, below 10 nM and 1000 to 10000 nM, respectively.

The record behind these values is patent US20190352288A1, “MATRIX METALLOPROTEINASE (MMP) INHIBITORS AND METHODS OF USE THEREOF” (Foresee Pharmaceuticals Co., Ltd., priority 2018, published 2019).
